The values below are quoted from earlier work in patent publication US6797806B2, “Fragments of CR1 and their use” (AdProTech Limited, priority 1996, dated 2004).

Data set [1] deals with myeloperoxidase activity (an indicator of neutrophil accumulation). The conditions noted are these: rat.
For data set [2] the following is noted: in vivo.
The conditions of data set [3]: in vivo. This is another data set of the same source.
For data set [4] the following is noted: systemic inhibition of CA over 6 days.
The conditions of data set [5]: in vivo. The source holds these as a separate data set.

With “sCR1: soluble CR1 construct, complement inhibitor, molecular weight 245 kilodaltons”, in data set [1], the “myeloperoxidase activity following traumatic injury” value is on record as “reduce myeloperoxidase activity”. In addition, the “activity in a reversed passive Arthus reaction” value in data set [2] was “demonstrated in vivo activity”. The “survival rates following transplantation” value in data set [3] was “extended survival rates”. Also, in data set [4], the “CNS inflammation, demyelination and deposition of complement components” value is “blocked”; the clinical score entry is recorded as “improvements in clinical score”. In addition, in data set [5], the “post-ischemic myocardial inflammation and necrosis” value is on record as “suppressed”.
